Experimental data as given in US20240165096A1, “Anti Viral Therapy” (priority 2021, published 2024).
Where a name gives a salt, the structure may show the parent alone. Read-outs that look alike come from different tables or passages of the source.

What was measured:
SARS-COV-2 NSP12 RNA = experiment: RT-qPCR of viral NSP12 RNA in infected Calu3 cells; type: cell-based
SARS-COV-2 [1] = experiment: microbe, parasite or virus in culture; type: cell-based; settings: for decrease in the amount of virus released from infected Calu3 cells: pretreatment 24 h, PHE strain MOI 0.1, plaque assay; for IC50: Severe acute respiratory syndrome coronavirus 2, Calu-3, drug alone, infected Calu3 cells, pre-treated 24 hours prior to infection, 6 concentrations
Vero cells = system: Vero cells
Procedure: (§1) Compounds were acoustically transferred into black 384 well optical bottom plates (Nunc-UK). Calu-3 and Vero cells were maintained as described for the infection assay and seeded in the assay-ready plates at a density of 3×10^3 cells/well for Vero cells, and 9×10^3 cells/well for Calu-3 cells. Plates were incubated for 72 h at 37° C. and 5% CO2. To assess cell toxicity, CellTox™ Green Cytotoxicity Assay (Promega-UK) was undertaken following the manufacturer's instructions. Plates were incubated for 15 min prior to recording fluorescence (480/520 nm) using a […] (CLARIOstar Plus; BMG LABTECH, UK).

Calu3 cells = system: Calu3 cells
Procedure: as §1

SARS-COV-2 [2] = experiment: microbe, parasite or virus in culture; settings: Severe acute respiratory syndrome coronavirus 2, Calu-3, in Homo sapiens, read-out: protection from infection of SARS-COV-2 (percent inhibition of CPE)
SARS-COV-2 [3] = type: cell-based
SARS-COV-2 [4] = settings: 5 μM, Calu3 and Vero cells, MOI 0.1, CPE 3 days post infection

SMILES: CN1CCC(=C2c3ccccc3CCc3cccnc32)CC1 [Azatadine]
- reduction of viral NSP12 RNA levels (SARS-COV-2 NSP12 RNA; 5 μM, infected Calu3 cells): ~50%
- levels of viral NSP12 RNA (SARS-COV-2 NSP12 RNA; both concentrations (5 and 25 μM), RT-qPCR): substantially reduced
- decrease in the amount of virus released from infected Calu3 cells (SARS-COV-2 [1]; 5 μM): ~100 fold
- decrease in the amount of virus released from infected Calu3 cells (SARS-COV-2 [1]; 25 μM): ~5000 fold
- IC50 (SARS-COV-2 [1]): ~4900 nM
- levels of mature infectious viral particles released from infected cells (SARS-COV-2 [1]; both concentrations (5 and 25 μM), plaque assay): substantially reduced
- cytotoxicity on Vero cells (Vero cells): not cytotoxic
- cytotoxicity on Calu3 cells (Calu3 cells): not cytotoxic
- inhibition at 5 µM (SARS-COV-2 [2]): ≥ 90%
- IFNλ release and/or activity (expression) (IFNλ): enhanced the release and/or activity of IFNλ
- SARS-COV-2-mediated cytotoxicity (IFNλ): robustly inhibited
- rank among interferon-enhancing drugs (IFNλ): top 1%
- IFNλ release and/or activity (expression) (IFNλ; listed as Azatadine maleate): increase IFN-λ expression
- reduction of virus growth kinetics (SARS-COV-2 [3]): 10^2 PFU/mL
- SARS-COV-2 titres following treatment (SARS-COV-2 [3]; donor #311, 25 μM): no difference

SMILES: CN1CCC(=C2c3ccccc3C=Cc3ccccc32)CC1 [Cyproheptadine]
- antiviral effects in the screens (SARS-COV-2 [4]): did not show any antiviral effects

SMILES: O=C(O)COCCN1CCN([C@H](c2ccccc2)c2ccc(Cl)cc2)CC1 [Levocetirizine Dihydrochloride]
- IFNλ release and/or activity (expression) (IFNλ): enhanced IFNλ release and/or activity
- SARS-COV-2-mediated cytotoxicity (IFNλ): failed to inhibit cytotoxicity

SMILES: CCC(CC)COC(=O)[C@H](C)N[P@](=O)(OC[C@H]1O[C@@](C#N)(c2ccc3c(N)ncnn23)[C@H](O)[C@@H]1O)Oc1ccccc1 [Remdesivir]
- decrease in the amount of virus released from infected Calu3 cells (SARS-COV-2 [1]; 1 μM): ~5000 fold
- IC50 (SARS-COV-2 [1]): ~190 nM
- reduction of virus growth kinetics (SARS-COV-2 [3]): 10^3 PFU/mL
- reduction in viral titres relative to the DMSO control (SARS-COV-2 [3]; donor #311, 1 μM): 1.47 log10
